We go through four compounds from article PMC7277225, “Structures of FOX-4 Cephamycinase in Complex with Transition-State Analog Inhibitors” (Biomolecules, 2020).

The structures appear in SMILES notation.

Test [1] has as its target T1, FOX-4 cephamycinase (class C β-lactamase) (Escherichia coli, UniProt Q9L387).
T1 construct: native FOX-4, purified from periplasmic fractions of E. coli
Briefly: X-ray crystal structure (soak, […] Å); IC50 with purified enzyme by nitrocefin hydrolysis. Format: biochemical.

Test [2] has as its target T1, FOX-4 cephamycinase (class C β-lactamase). Briefly: steady-state kinetics, nitrocefin hydrolysis, […] min pre-incubation. Format: biochemical. Particulars: read-out: FOX-4 ^1 IC50.
The target is the same in test [3]. Briefly: biochemical. Particulars: read-out: FOX-4 ^1 IC50.

One may read the IC50 as the concentration at which inhibition is half-maximal.

With `CC(C)(O/N=C(\C(=O)NCB(O)O)c1csc(N)n1)C(=O)O` [LP06], half-maximal inhibition in test [1] (IC50) required 110 ± 20 nM.

Turning to `CO/N=C(\C(=O)NCB(O)O)c1csc(N)n1` [CTX-like], in test [2], the IC50 worked out at 260 ± 20 nM.

`O=C(Cc1cccs1)N[C@H](B(O)O)c1cccc(C(=O)O)c1` [SM23]: the IC50 in test [3] is 32 ± 3 nM. Regarding `O=C(Cc1cccs1)N[C@@H](Cc1cccc(C(=O)O)c1)B(O)O` [EC04], the IC50 in test [2] was determined as 420 ± 20 nM.
